Test results published in article PMC4110071, “DevR (DosR) mimetic peptides impair transcriptional regulation and survival of Mycobacterium tuberculosis under hypoxia by inhibiting the autokinase activity of DevS sensor kinase” (BMC Microbiology, 2014).
Read-outs that look alike come from different tables or passages of the source.

Legend:
[1] = system: DevS ~ P to DevR phosphotransfer; assay: In vitro phosphotransfer assay from DevS~P to DevR; type: biochemical, Mycobacterium tuberculosis; conditions: data not shown
Experimental: To study the phosphotransfer reaction, DevS201 (15 μM final concentration) was phosphorylated for 60 mins as described above. Subsequently, full-length DevR or DevRN protein (1–144 amino acid residues, 20 μM final concentration) was added to the phosphorylated DevS201 mix, and the reaction was incubated at 25°C for 2 mins. The reaction was terminated with 10 μl of 2X stop buffer (100 mM Tris-Cl, pH 6.8, 20% glycerol, 2% SDS, 280 mM β-mercaptoethanol, 0.01% bromophenol blue) and the samples were resolved on SDS-PAGE. The gel was rinsed in water and subjected to autoradiography.

[2] = system: DevS201 (cytoplasmic domain of DevS sensor kinase); assay: DevS201 autokinase (autophosphorylation) assay, high-throughput filtration format; type: biochemical, Mycobacterium tuberculosis; conditions: for % Inhibition of autokinase activity: mean of three independent experiments, 0 = lack of inhibition; for inhibition of DevS autokinase activity (in words): Pep peptides at 3 mM and 5 mM, preincubated with DevS201 (15 μM) 30 mins at 25°C, three independent experiments, poor reproducibility due to protein aggregation
[3] = system: Rv3134c promoter (DevR-dependent); type: cell-based, Mycobacterium tuberculosis; conditions: for inhibition of Rv3134c promoter activity: peptides at 2.5 and 5 mM, two independent experiments; for % Inhibition of reporter activity, Rv3134c promoter: hypoxic, mean of two independent experiments
[4] = system: sigA promoter (not regulated by DevR); type: cell-based, Mycobacterium tuberculosis; conditions: for % Inhibition of reporter activity, sigA promoter: peptide 5 mM, 0 = no detectable inhibition
M. tuberculosis = type: cell-based, Mycobacterium tuberculosis; conditions: aerobic cultures; with respect to the DMSO control; two independent experiments
[5] = system: CHO (Chinese hamster ovary cells); type: cell-based; conditions: MTT, 5 mM and 2.5 mM peptide, 48 h, relative to the DMSO vehicle control, duplicate values
Experimental: (§1) Figure 6 Cytotoxicity of peptides. Percentage cytotoxicity due to exposure to peptides was assessed in HepG2 and CHO cell lines using the MTT assay. The cells were exposed to DevRS A-ext and DevRS D peptides at 2.5 mM and 5 mM concentration in 96-well plate format for 48 h. Percentage cytotoxicity is shown with respect to the DMSO control as mean ± SD for duplicate values.
(§2) The cytotoxicity of DevRS1 peptide was assessed in CHO (Chinese hamster ovary cells) and HepG2 (human liver hepatocellular carcinoma) cell lines. Both the cell lines were maintained in DMEM supplemented with 10% FBS at 37°C in 5% CO2. Approximately, 10^4 cells were seeded per well in a 96-well plate and incubated at 37 °C for 12–16 h. The peptides were diluted in 125 μl DMEM and added onto cells (final volume 250 μl per well, 2.5 and 5 mM final peptide concentrations), and the plate was incubated at 37°C in 5% CO2 for 48 h. Subsequently, 20 μl of MTT (Sigma 5 μg μl^-1) was added and incubated for 4–5 h at 37°C. Following incubation, media was discarded and the formazan crystals were solubilized by adding 200 μl DMSO and the absorbance measured at A560 nm. The percentage toxicity was calculated as: […]

[6] = system: HepG2 (human liver hepatocellular carcinoma); type: cell-based; conditions: HepG2 cells; MTT; 5 mM and 2.5 mM peptide; 48 h; relative to the DMSO vehicle control; duplicate values
Experimental: as §1, §2

M. tb H37Rv = assay: REMA, aerobic Resazurin reduction assay; type: cell-based, Mycobacterium tuberculosis; conditions: 64 h at 37°C, Resazurin fluorescence, two independent experiments

VRLPD [DevRS D, DevR mimetic peptide VRLPD]
inhibition of phosphosignal transfer from DevS ~ P to DevR (in words) [1]: neither DevRS A-ext nor DevRS D inhibited this reaction | inhibition of DevS autokinase activity ([2]; DevRS peptide 5 mM, preincubated with DevS201 30 mins at 25°C, then ATP 1 h, mean of two independent experiments): 37% | inhibition of Rv3134c promoter activity ([3]; […]): 20-30% | inhibition of Rv3134c promoter activity ([3]; hypoxic conditions): ~40% | inhibition of sigA promoter activity (in words) [4]: did not inhibit sigA promoter activity | CFU: % Inhibition of Viability (M. tuberculosis): ≤ 10% | Percentage cytotoxicity [5]: 20-40% | Percentage cytotoxicity [6]: 20-40% | inhibition of viability, REMA (M. tb H37Rv): ≤ 15%

SLFRDWP [Pep C]
% Inhibition of autokinase activity ([2]; Pep peptide 5 mM): 0% | inhibition of DevS autokinase activity (in words) ([2]; then ATP 1 h): did not inhibit autokinase activity at any of the concentrations tested | % Inhibition of autokinase activity ([2]; peptide 3 mM): 0%

KDIKGME [DevRS A, DevR mimetic peptide KDIKGME]
% Inhibition of reporter activity, Rv3134c promoter ([3]; peptide 2.5 mM): 30% | % Inhibition of reporter activity, Rv3134c promoter ([3]; peptide 5 mM): ~ 45% | % Inhibition of reporter activity, sigA promoter ([4]; aerobic): 6% | % Inhibition of reporter activity, sigA promoter ([4]; hypoxic): ~ 14%

TFESYSL [Pep B]
inhibition of DevS autokinase activity (in words) ([2]; then ATP 1 h): inhibit DevS autokinase activity to varying degrees

HNTRGEE [Pep A]
inhibition of DevS autokinase activity (in words) ([2]; then ATP 1 h): inhibit DevS autokinase activity to varying degrees

ITNPDPY [Pep D]
inhibition of DevS autokinase activity (in words) ([2]; then ATP 1 h): inhibit DevS autokinase activity to varying degrees
